Measured values: a melting point compilation (Tetko et al.)

| SMILES | melting point |
| --- | --- |
| O=C(O)c1ccc(S(=O)(=O)NCc2ccco2)cc1 | 229 to 231 °C |
| O=C(O)CSc1nnc(-c2ccc(F)cc2)o1 | 140 to 142 °C |
| CCN(CC)S(=O)(=O)c1ccc2nc(CCl)[nH]c2c1 | 93 to 95 °C |
| CC(C)(C)c1cnc(S)s1 | 115 to 117 °C |
| O=c1[nH]nc(-c2ccc(Cl)c(Cl)c2)c2ccccc12 | 274 to 276 °C |
| Oc1ccc(-c2cscn2)cc1 | 146 to 148 °C |
| NC(=O)C1CCN(c2ccccc2N)CC1 | 199 to 201 °C |
| OCCN1CCSCC1 | 34 to 36 °C |
| CCCn1c(N)c(NCCOC)c(=O)[nH]c1=O | 193 to 195 °C |
| CC(C)S(N)(=O)=O | 44 to 46 °C |
| CNS(=O)(=O)c1ccc(C)c(N)c1 | 83 to 85 °C |
| c1ccc2oc(N3CCNCC3)nc2c1 | 74 to 76 °C |
| CCc1nc(N)sc1C(=O)O | 154 to 156 °C |
| N#CCc1cc(Cl)c2c(c1)OCCO2 | 102 to 104 °C |
| Sc1nnc(-c2ccncc2)n1Cc1ccccc1 | 195 to 197 °C |
| O=c1cnc2ccccc2[nH]1 | 271 to 272 °C |
| CNC(=O)Cn1cnc(N)n1 | 149 to 151 °C |
| O=C(O)c1csc(-c2ccc(Cl)c(Cl)c2)n1 | 212 to 214 °C |
| COC(=O)C=Cc1ccc([N+](=O)[O-])cc1 | 161 to 163 °C |
| FC(F)(F)c1cc(Cl)nc(-c2ccncc2)n1 | 158 to 160 °C |
| O=[N+]([O-])c1cc(F)cc(S(=O)(=O)Cl)c1 | 40 to 42 °C |
| O=c1cc(-c2ccccc2)c2cc(Cl)ccc2[nH]1 | 257 to 259 °C |
| NS(=O)(=O)c1cccc2c1CCCN2 | 147 to 149 °C |
| Fc1ccc(-c2nc(CCl)no2)cc1 | 51 to 55 °C |
| COc1ccc(S(=O)(=O)Nc2cccc(CN)c2)cc1 | 125 to 127 °C |

| SMILES | melting point |
| --- | --- |
| CC(C)C(NCC(F)(F)F)C(=O)O (stereo not given) | 128 to 130 °C |
| COc1ccc(Cl)cc1CC(=O)O | 131 to 133 °C |
| N#CC(C(=O)CCl)c1nc2ccccc2c(=O)[nH]1 (stereo not given) | 216 to 218 °C |
| O=C(O)C1CC(c2ccc(Cl)cc2Cl)=NO1 (stereo not given) | 115 to 117 °C |
| CNC(=O)NC(=O)C(Cl)c1ccccc1 (stereo not given) | 130 to 132 °C |
| Nc1ccc(N2CCCC2)c(S(=O)(=O)Nc2cccc(C(F)(F)F)c2)c1 | 151 to 153 °C |
| C=CCNS(=O)(=O)c1ccccc1F | 100 to 102 °C |
| Nc1ccc(C=CC(=O)O)cn1 | 189 to 191 °C |
| CNC(=O)c1cc(Cl)ccc1[N+](=O)[O-] | 137 to 139 °C |
| CSc1nc(Cl)cc(CCl)n1 | 28 to 32 °C |
| O=C(O)c1cc([N+](=O)[O-])ccc1Oc1ccccc1 | 167 to 169 °C |
| O=C(CCl)NCC1COc2ccccc2O1 (stereo not given) | 212 to 214 °C |
| NC1CCc2c(O)cccc21 (stereo not given) | 167 to 169 °C |
| CC(C)(C)n1cc(C(=O)O)c(-c2ccc(F)cc2F)n1 | 145 to 147 °C |
| O=C(O)c1cc2c(F)cc(F)cc2[nH]1 | 252 to 254 °C |
| Nc1nc(C(F)(F)F)cs1 | 66 to 68 °C |
| O=C(O)c1cc(OCc2ccccc2)ccc1O | 165 to 167 °C |
| CC(C)(C)OC(=O)N1CCCNC(=O)C1 | 112 to 114 °C |
| CC(C)(C)c1ccc(N2CCC(=O)CC2)cc1 | 69 to 71 °C |
| CC(=O)c1ccc(C(F)(F)F)[nH]c1=O | 87 to 89 °C |
| Nc1ccc(S(=O)(=O)Nc2ccccc2Cl)c(Cl)c1 | 239 to 241 °C |
| Cc1cc(C(=O)O)c2c(Br)cccc2n1 | 232 to 234 °C |
| Cc1[nH]c(=O)c(C#N)c(C)c1CCC(=O)O | 253 to 257 °C |
| CNc1ncc(C(=O)O)s1 | 159 to 161 °C |
| CCOc1ccc(OCCCC(=O)O)cc1 | 104 to 106 °C |

| SMILES | melting point |
| --- | --- |
| O=C(O)Cc1csc(-c2ccc(Cl)s2)n1 | 136 to 138 °C |
| Cc1nc(-c2cccc(N)c2)[nH]c1C | 235 to 237 °C |
| NC(=NO)c1ccc(OCc2ccccc2)cc1 | 167 to 169 °C |
| COC(=O)c1ccccc1S(=O)(=O)Nc1ccccc1Cl | 97 to 99 °C |
| CC(=O)N1CCC(NC(=O)CCl)CC1 | 120 to 122 °C |
| Nc1nc(Cl)ccc1[N+](=O)[O-] | 188 to 193 °C |
| CCN(CC)S(=O)(=O)c1ccc(CC#N)nc1 | 72 to 74 °C |
| BrCc1cc(Br)cc2cccnc12 | 140 to 142 °C |
| CC(C)CNC(=O)C(C)Nc1cccc(Br)c1 (stereo not given) | 92 to 94 °C |
| CCNC(=O)COc1cccc(CN)c1 | 62 to 64 °C |
| COC(=O)C(C)NC(=O)c1ccc(Cl)c([N+](=O)[O-])c1 (stereo not given) | 102 to 104 °C |
| Clc1cc2c(Cl)ncnc2[nH]1 | 239 to 241 °C |
| COC(=O)c1cc(C(C)(C)C)n[nH]1 | 172 to 174 °C |
| NNc1nc(-c2cccnc2)no1 | 169 to 171 °C |
| Nc1nc(CN2CCN(Cc3ccccc3)CC2)cs1 | 110 to 112 °C |
| CC(C)(C)NC(=O)CN1CCN(CC(N)=S)CC1 | 148 to 152 °C |
| COCCn1c(S)nnc1-c1ccccc1 | 133 to 135 °C |
| CCNC(=O)Nc1cc(F)ccc1N | 147 to 149 °C |
| O=C(CCl)c1cc([N+](=O)[O-])c[nH]1 | 199 to 201 °C |
| CCOc1ccc(-n2ncc(C(=O)O)c2C)nn1 | 227 to 229 °C |
| CC(C)N(C(C)C)S(=O)(=O)c1ccc(NN)nc1 | 159 to 161 °C |
| Cc1nn(C)c(Oc2cccnc2)c1C=O | 91 to 93 °C |
| NS(=O)(=O)N1CCC(OC(=O)C(F)(F)F)CC1 | 126 to 128 °C |
| c1ccc(NC2=NCCCS2)cc1 | 124 to 126 °C |
| O=C1COc2ncc(Br)cc2N1 | 256 to 258 °C |

| SMILES | melting point |
| --- | --- |
| O=C(O)c1c2c(cc([N+](=O)[O-])c1[N+](=O)[O-])OCCO2 | 210 to 212 °C |
| Cc1cc(C(=O)O)nn1-c1ccc(Cl)cc1 | 139 to 141 °C |
| CC(C)(C)OC(=O)Nc1csc(Br)c1 | 84 to 86 °C |
| CCN1C(=O)CNC1=O | 100 to 102 °C |
| CCc1noc2ncc(C(=O)O)cc12 | 193 to 195 °C |
| Cc1nn(CC(=O)O)c(C)c1[N+](=O)[O-] | 179 to 181 °C |
| CC(=O)c1cccc(-c2ccncc2)c1 | 64 to 66 °C |
| O=C(O)C1CCN(S(=O)(=O)N2CCCCC2)CC1 | 131 to 133 °C |
| CC(=O)c1ccc(-n2c(C)c[nH]c2=O)cc1 | 203 to 205 °C |
| O=C(O)Cc1cn(-c2ccccc2)nc1-c1ccc(F)cc1 | 145 to 147 °C |
| O=C1CNC(=O)N1Cc1ccc(Cl)c([N+](=O)[O-])c1 | 183 to 185 °C |
| O=C(O)c1ccc(Cl)c2cccnc12 | 199 to 201 °C |
| O=C(O)c1ccc(F)c(S(=O)(=O)N2CCCCC2)c1 | 203 to 205 °C |
| Fc1cccc2c(CBr)csc12 | 74 to 76 °C |
| O=C(O)c1cc(C(F)(F)F)ccc1SC1CCCC1 | 174 to 176 °C |
| COC(=O)C(NC(c1ccccc1)(c1ccccc1)c1ccccc1)C(C)O (stereo not given) | 115 to 117 °C |
| COCCCC(N)=NO | 84 to 86 °C |
| O=C(O)COc1ccc2ccc(=O)oc2c1 | 213 to 215 °C |
| CN(CCO)c1ccc(N)nc1 | 82 to 84 °C |
| CN(C)c1ccc(C(N)=NO)cc1 | 169 to 171 °C |
| NC(c1ccc(Cl)cc1)c1ccc(C(F)(F)F)cc1 (stereo not given) | 58 to 60 °C |
| Nc1nc(-c2ccccc2)cn1/N=C/c1ccccc1 | 202 to 204 °C |
| O=C(O)c1ccc(NC2CC2)nc1 | 178 to 180 °C |
| NS(=O)(=O)c1cncc(Br)c1 | 199 to 201 °C |
| CCOC(=O)c1[nH]c2c(c1C)C(=O)CCC2 | 159 to 161 °C |
